{"source": "the NIST ThermoML archive (doi:10.1021/je900124n)", "details": "Fluid (supercritical or subcritical phases), Buoyancy - hydrostatic balance with magnetic suspension - two sinkers", "note": "“And” between values parts separate entries of the source, which are not always exact repeats. Identical values can stand only once. Numbers after ± are expanded uncertainties."}
{"smiles": "CCC", "note": "[propane]", "values": [{"measurement": "mass density", "setting": "315 K, 774.95 kPa", "result": "14.7169 ± 0.0042 kg/m3 and 14.7168 ± 0.0042 kg/m3"}, {"measurement": "mass density", "setting": "315 K, 774.96 kPa", "result": "14.7169 ± 0.0042 kg/m3 and 14.7168 ± 0.0042 kg/m3"}, {"measurement": "mass density", "setting": "315 K, 1306.4 kPa", "result": "27.9201 ± 0.0071 kg/m3 and 27.9221 ± 0.0071 kg/m3"}, {"measurement": "mass density", "setting": "315 K, 1306.5 kPa", "result": "27.9244 ± 0.0072", "unit": "kg/m3"}, {"measurement": "mass density", "setting": "315 K, 1306.6 kPa", "result": "27.927 ± 0.0071 kg/m3 and 27.926 ± 0.0071 kg/m3"}, {"measurement": "mass density", "setting": "320 K, 270.24 kPa", "result": "4.64 ± 0.0029 kg/m3 and 4.6399 ± 0.0029 kg/m3 and 4.6398 ± 0.0029 kg/m3"}, {"measurement": "mass density", "setting": "320 K, 476.69 kPa", "result": "8.4338 ± 0.0034 kg/m3 and 8.4339 ± 0.0034 kg/m3"}, {"measurement": "mass density", "setting": "320 K, 789.41 kPa", "result": "14.6898 ± 0.0041", "unit": "kg/m3"}, {"measurement": "mass density", "setting": "320 K, 789.42 kPa", "result": "14.69 ± 0.0041", "unit": "kg/m3"}, {"measurement": "mass density", "setting": "320 K, 789.43 kPa", "result": "14.6907 ± 0.0041 kg/m3 and 14.6901 ± 0.0041 kg/m3"}, {"measurement": "mass density", "setting": "320 K, 1333.7 kPa", "result": "27.726 ± 0.53", "unit": "kg/m3"}, {"measurement": "mass density", "setting": "320 K, 1333.9 kPa", "result": "27.7763 ± 0.53", "unit": "kg/m3"}, {"measurement": "mass density", "setting": "320 K, 1334.3 kPa", "result": "27.7883 ± 0.53", "unit": "kg/m3"}, {"measurement": "mass density", "setting": "320 K, 1334.6 kPa", "result": "27.742 ± 0.53", "unit": "kg/m3"}, {"measurement": "mass density", "setting": "320 K, 1335 kPa", "result": "27.8035 ± 0.53", "unit": "kg/m3"}, {"measurement": "mass density", "setting": "320 K, 2017.4 kPa", "result": "457.1 ± 0.15", "unit": "kg/m3"}, {"measurement": "mass density", "setting": "320 K, 2018.5 kPa", "result": "457.104 ± 0.15", "unit": "kg/m3"}, {"measurement": "mass density", "setting": "320 K, 2018.7 kPa", "result": "457.105 ± 0.15", "unit": "kg/m3"}, {"measurement": "mass density", "setting": "320 K, 2018.8 kPa", "result": "457.104 ± 0.15", "unit": "kg/m3"}, {"measurement": "mass density", "setting": "320 K, 2019.1 kPa", "result": "457.105 ± 0.15", "unit": "kg/m3"}, {"measurement": "mass density", "setting": "320 K, 2019.3 kPa", "result": "457.11 ± 0.15", "unit": "kg/m3"}, {"measurement": "mass density", "setting": "320 K, 2019.4 kPa", "result": "457.108 ± 0.15", "unit": "kg/m3"}, {"measurement": "mass density", "setting": "320 K, 2019.5 kPa", "result": "457.11 ± 0.15", "unit": "kg/m3"}, {"measurement": "mass density", "setting": "320 K, 2019.8 kPa", "result": "457.109 ± 0.15 kg/m3 and 457.107 ± 0.15 kg/m3 and 457.108 ± 0.15 kg/m3"}, {"measurement": "mass density", "setting": "320 K, 2019.9 kPa", "result": "457.109 ± 0.15", "unit": "kg/m3"}, {"measurement": "mass density", "setting": "320 K, 4080.8 kPa", "result": "466.418 ± 0.057", "unit": "kg/m3"}, {"measurement": "mass density", "setting": "320 K, 4080.9 kPa", "result": "466.42 ± 0.057", "unit": "kg/m3"}, {"measurement": "mass density", "setting": "320 K, 4081 kPa", "result": "466.419 ± 0.057", "unit": "kg/m3"}, {"measurement": "mass density", "setting": "320 K, 4081.3 kPa", "result": "466.42 ± 0.057", "unit": "kg/m3"}, {"measurement": "mass density", "setting": "320 K, 4081.6 kPa", "result": "466.42 ± 0.057", "unit": "kg/m3"}, {"measurement": "mass density", "setting": "320 K, 8257.8 kPa", "result": "481.065 ± 0.058", "unit": "kg/m3"}, {"measurement": "mass density", "setting": "320 K, 8258.1 kPa", "result": "481.068 ± 0.058", "unit": "kg/m3"}, {"measurement": "mass density", "setting": "320 K, 8258.4 kPa", "result": "481.067 ± 0.058 kg/m3 and 481.068 ± 0.058 kg/m3"}, {"measurement": "mass density", "setting": "320 K, 10347 kPa", "result": "487.109 ± 0.059 kg/m3 and 487.106 ± 0.059 kg/m3 and 487.107 ± 0.059 kg/m3"}, {"measurement": "mass density", "setting": "320 K, 10348 kPa", "result": "487.113 ± 0.059 kg/m3 and 487.107 ± 0.059 kg/m3"}, {"measurement": "mass density", "setting": "320 K, 10349 kPa", "result": "487.112 ± 0.059", "unit": "kg/m3"}, {"measurement": "mass density", "setting": "320 K, 12003 kPa", "result": "491.44 ± 0.06", "unit": "kg/m3"}, {"measurement": "mass density", "setting": "320 K, 12004 kPa", "result": "491.44 ± 0.06 kg/m3 and 491.441 ± 0.06 kg/m3"}, {"measurement": "mass density", "setting": "320 K, 16094 kPa", "result": "500.965 ± 0.061", "unit": "kg/m3"}, {"measurement": "mass density", "setting": "320 K, 16095 kPa", "result": "500.967 ± 0.061", "unit": "kg/m3"}, {"measurement": "mass density", "setting": "320 K, 16096 kPa", "result": "500.967 ± 0.061", "unit": "kg/m3"}, {"measurement": "mass density", "setting": "320 K, 20063 kPa", "result": "508.971 ± 0.062 kg/m3 and 508.967 ± 0.062 kg/m3 and 508.969 ± 0.062 kg/m3"}, {"measurement": "mass density", "setting": "320 K, 20064 kPa", "result": "508.969 ± 0.062 kg/m3 and 508.971 ± 0.062 kg/m3"}, {"measurement": "mass density", "setting": "320 K, 24069 kPa", "result": "516.143 ± 0.062", "unit": "kg/m3"}, {"measurement": "mass density", "setting": "320 K, 24072 kPa", "result": "516.146 ± 0.062 kg/m3 and 516.148 ± 0.062 kg/m3 and 516.147 ± 0.062 kg/m3"}, {"measurement": "mass density", "setting": "320 K, 29981 kPa", "result": "525.489 ± 0.064", "unit": "kg/m3"}, {"measurement": "mass density", "setting": "320 K, 29983 kPa", "result": "525.494 ± 0.064", "unit": "kg/m3"}, {"measurement": "mass density", "setting": "320 K, 29985 kPa", "result": "525.495 ± 0.064", "unit": "kg/m3"}, {"measurement": "mass density", "setting": "320 K, 29986 kPa", "result": "525.497 ± 0.064", "unit": "kg/m3"}, {"measurement": "mass density", "setting": "320 K, 35299 kPa", "result": "532.943 ± 0.064", "unit": "kg/m3"}, {"measurement": "mass density", "setting": "320 K, 35300 kPa", "result": "532.945 ± 0.064 kg/m3 and 532.943 ± 0.064 kg/m3"}, {"measurement": "mass density", "setting": "320 K, 35301 kPa", "result": "532.945 ± 0.064", "unit": "kg/m3"}, {"measurement": "mass density", "setting": "325 K, 803.73 kPa", "result": "14.6629 ± 0.0041 kg/m3 and 14.6627 ± 0.0041 kg/m3 and 14.6626 ± 0.0041 kg/m3"}, {"measurement": "mass density", "setting": "325 K, 803.74 kPa", "result": "14.6631 ± 0.0041 kg/m3 and 14.6629 ± 0.0041 kg/m3"}, {"measurement": "mass density", "setting": "325 K, 1340.6 kPa", "result": "27.0793 ± 0.032", "unit": "kg/m3"}, {"measurement": "mass density", "setting": "325 K, 1340.9 kPa", "result": "27.1015 ± 0.032", "unit": "kg/m3"}, {"measurement": "mass density", "setting": "325 K, 1341.2 kPa", "result": "27.0724 ± 0.032", "unit": "kg/m3"}, {"measurement": "mass density", "setting": "325 K, 1341.8 kPa", "result": "27.0948 ± 0.032", "unit": "kg/m3"}]}
